{"source": "paper PMC6008465", "about": "(British Journal of Cancer, 2018)", "system": "patients with advanced solid tumours", "experiment": "Phase 1 Part A (dose escalation): safety, DLT, MTD", "type": "in vivo, human", "method": "The primary objectives of this phase 1 study were to evaluate the safety, tolerability, and MTD of once-weekly (Schedule I) and twice-weekly (Schedule II) dosing. Secondary objectives included evaluation of the PK profile of E6201. […] Toxicity was managed by dose interruption, reduction, and/or discontinuation. Only Cycle 1 adverse events (AEs) were evaluable as DLTs. Based on AEs reported at 480 mg/m^2 and 400 mg/m^2, the protocol was amended to include up to 6 additional toxicity-evaluable patients at 320 mg/m^2, to confirm this as the MTD. All ongoing patients could continue at 320 mg/m^2, regardless of initial starting dose.\nSafety was assessed by monitoring AEs, serious AEs (SAEs), laboratory parameters, vital signs, 12-lead electrocardiograms (ECGs), Eastern Cooperative Oncology Group performance status, and symptom-directed physical and neurologic examination findings. AEs were graded by investigators based on the National Cancer Institute Common Terminology Criteria for Adverse Events, version 3.[16]", "data": [{"smiles": "CCNc1cc(O)c2c(c1)/C=C/C[C@H](O)[C@H](O)C(=O)/C=C\\[C@@H](C)[C@H](C)OC2=O", "note": "[E6201, (3S,4R,5Z,8S,9S,11E)-14-(ethylamino)-8,9,16-trihydroxy-3,4-dimethyl-3,4,9,19-tetrahydro-1H-2-benzoxacyclotetradecine-1,7 (8H)-dione]", "values": [{"measurement": "Patients who discontinued treatment due to SAEs", "setting": "Part A", "result": "Two"}, {"measurement": "Patients with grade 1/2 eye disorders", "setting": "Part A (160 and 320 mg/m^2 groups)", "result": "two"}, {"measurement": "Nausea TEAE, patients", "setting": "Part A overall, 9 patients", "result": 36, "unit": "%"}, {"measurement": "Abdominal pain TEAE incidence, All grades", "setting": "Part A, 20 mg/m^2 (n=4)", "result": "1 (25.0) n (%)"}, {"measurement": "Abdominal pain TEAE incidence, G≥3", "setting": "Part A, 20 mg/m^2 (n=4)", "result": "0 n (%)"}, {"measurement": "Constipation TEAE incidence, All grades", "setting": "Part A, 20 mg/m^2 (n=4)", "result": "1 (25.0) n (%)"}, {"measurement": "Constipation TEAE incidence, G≥3", "setting": "Part A, 20 mg/m^2 (n=4)", "result": "0 n (%)"}, {"measurement": "Decreased appetite TEAE incidence, All grades", "setting": "Part A, 20 mg/m^2 (n=4)", "result": "1 (25.0) n (%)"}, {"measurement": "Decreased appetite TEAE incidence, G≥3", "setting": "Part A, 20 mg/m^2 (n=4)", "result": "0 n (%)"}, {"measurement": "Fatigue TEAE incidence, All grades", "setting": "Part A, 20 mg/m^2 (n=4)", "result": "1 (25.0) n (%)"}, {"measurement": "Fatigue TEAE incidence, G≥3", "setting": "Part A, 20 mg/m^2 (n=4)", "result": "0 n (%)"}, {"measurement": "Hypokalemia TEAE incidence, All grades", "setting": "Part A, 20 mg/m^2 (n=4)", "result": "1 (25.0) n (%)"}, {"measurement": "Hypokalemia TEAE incidence, G≥3", "setting": "Part A, 20 mg/m^2 (n=4)", "result": "0 n (%)"}, {"measurement": "Nausea TEAE incidence, All grades", "setting": "Part A, 20 mg/m^2 (n=4)", "result": "1 (25.0) n (%)"}, {"measurement": "Nausea TEAE incidence, G≥3", "setting": "Part A, 20 mg/m^2 (n=4)", "result": "0 n (%)"}, {"measurement": "Peripheral edema TEAE incidence, All grades", "setting": "Part A, 20 mg/m^2 (n=4)", "result": "1 (25.0) n (%)"}, {"measurement": "Peripheral edema TEAE incidence, G≥3", "setting": "Part A, 20 mg/m^2 (n=4)", "result": "0 n (%)"}, {"measurement": "Vomiting TEAE incidence, All grades", "setting": "Part A, 20 mg/m^2 (n=4)", "result": "0 n (%)"}, {"measurement": "Vomiting TEAE incidence, G≥3", "setting": "Part A, 20 mg/m^2 (n=4)", "result": "0 n (%)"}, {"measurement": "Abdominal pain TEAE incidence, All grades", "setting": "Part A, 40 mg/m^2 (n=3)", "result": "1 (33.3) n (%)"}, {"measurement": "Abdominal pain TEAE incidence, G≥3", "setting": "Part A, 40 mg/m^2 (n=3)", "result": "0 n (%)"}, {"measurement": "Constipation TEAE incidence, All grades", "setting": "Part A, 40 mg/m^2 (n=3)", "result": "0 n (%)"}, {"measurement": "Constipation TEAE incidence, G≥3", "setting": "Part A, 40 mg/m^2 (n=3)", "result": "0 n (%)"}, {"measurement": "Decreased appetite TEAE incidence, All grades", "setting": "Part A, 40 mg/m^2 (n=3)", "result": "0 n (%)"}, {"measurement": "Decreased appetite TEAE incidence, G≥3", "setting": "Part A, 40 mg/m^2 (n=3)", "result": "0 n (%)"}, {"measurement": "Fatigue TEAE incidence, All grades", "setting": "Part A, 40 mg/m^2 (n=3)", "result": "0 n (%)"}, {"measurement": "Fatigue TEAE incidence, G≥3", "setting": "Part A, 40 mg/m^2 (n=3)", "result": "0 n (%)"}, {"measurement": "Hypokalemia TEAE incidence, All grades", "setting": "Part A, 40 mg/m^2 (n=3)", "result": "1 (33.3) n (%)"}, {"measurement": "Hypokalemia TEAE incidence, G≥3", "setting": "Part A, 40 mg/m^2 (n=3)", "result": "0 n (%)"}, {"measurement": "Nausea TEAE incidence, All grades", "setting": "Part A, 40 mg/m^2 (n=3)", "result": "1 (33.3) n (%)"}, {"measurement": "Nausea TEAE incidence, G≥3", "setting": "Part A, 40 mg/m^2 (n=3)", "result": "0 n (%)"}, {"measurement": "Peripheral edema TEAE incidence, All grades", "setting": "Part A, 40 mg/m^2 (n=3)", "result": "0 n (%)"}, {"measurement": "Peripheral edema TEAE incidence, G≥3", "setting": "Part A, 40 mg/m^2 (n=3)", "result": "0 n (%)"}, {"measurement": "Vomiting TEAE incidence, All grades", "setting": "Part A, 40 mg/m^2 (n=3)", "result": "1 (33.3) n (%)"}, {"measurement": "Vomiting TEAE incidence, G≥3", "setting": "Part A, 40 mg/m^2 (n=3)", "result": "0 n (%)"}, {"measurement": "Abdominal pain TEAE incidence, All grades", "setting": "Part A, 80 mg/m^2 (n=3)", "result": "0 n (%)"}, {"measurement": "Abdominal pain TEAE incidence, G≥3", "setting": "Part A, 80 mg/m^2 (n=3)", "result": "0 n (%)"}, {"measurement": "Constipation TEAE incidence, All grades", "setting": "Part A, 80 mg/m^2 (n=3)", "result": "1 (33.3) n (%)"}, {"measurement": "Constipation TEAE incidence, G≥3", "setting": "Part A, 80 mg/m^2 (n=3)", "result": "0 n (%)"}, {"measurement": "Decreased appetite TEAE incidence, All grades", "setting": "Part A, 80 mg/m^2 (n=3)", "result": "0 n (%)"}, {"measurement": "Decreased appetite TEAE incidence, G≥3", "setting": "Part A, 80 mg/m^2 (n=3)", "result": "0 n (%)"}, {"measurement": "Fatigue TEAE incidence, All grades", "setting": "Part A, 80 mg/m^2 (n=3)", "result": "0 n (%)"}, {"measurement": "Fatigue TEAE incidence, G≥3", "setting": "Part A, 80 mg/m^2 (n=3)", "result": "0 n (%)"}, {"measurement": "Hypokalemia TEAE incidence, All grades", "setting": "Part A, 80 mg/m^2 (n=3)", "result": "0 n (%)"}, {"measurement": "Hypokalemia TEAE incidence, G≥3", "setting": "Part A, 80 mg/m^2 (n=3)", "result": "0 n (%)"}, {"measurement": "Nausea TEAE incidence, All grades", "setting": "Part A, 80 mg/m^2 (n=3)", "result": "0 n (%)"}, {"measurement": "Nausea TEAE incidence, G≥3", "setting": "Part A, 80 mg/m^2 (n=3)", "result": "0 n (%)"}, {"measurement": "Peripheral edema TEAE incidence, All grades", "setting": "Part A, 80 mg/m^2 (n=3)", "result": "1 (33.3) n (%)"}, {"measurement": "Peripheral edema TEAE incidence, G≥3", "setting": "Part A, 80 mg/m^2 (n=3)", "result": "0 n (%)"}, {"measurement": "Vomiting TEAE incidence, All grades", "setting": "Part A, 80 mg/m^2 (n=3)", "result": "0 n (%)"}, {"measurement": "Vomiting TEAE incidence, G≥3", "setting": "Part A, 80 mg/m^2 (n=3)", "result": "0 n (%)"}, {"measurement": "Abdominal pain TEAE incidence, All grades", "setting": "Part A, 160 mg/m^2 (n=3)", "result": "1 (33.3) n (%)"}, {"measurement": "Abdominal pain TEAE incidence, G≥3", "setting": "Part A, 160 mg/m^2 (n=3)", "result": "1 (33.3) n (%)"}, {"measurement": "Constipation TEAE incidence, All grades", "setting": "Part A, 160 mg/m^2 (n=3)", "result": "1 (33.3) n (%)"}, {"measurement": "Constipation TEAE incidence, G≥3", "setting": "Part A, 160 mg/m^2 (n=3)", "result": "0 n (%)"}, {"measurement": "Decreased appetite TEAE incidence, All grades", "setting": "Part A, 160 mg/m^2 (n=3)", "result": "1 (33.3) n (%)"}, {"measurement": "Decreased appetite TEAE incidence, G≥3", "setting": "Part A, 160 mg/m^2 (n=3)", "result": "0 n (%)"}, {"measurement": "Fatigue TEAE incidence, All grades", "setting": "Part A, 160 mg/m^2 (n=3)", "result": "1 (33.3) n (%)"}, {"measurement": "Fatigue TEAE incidence, G≥3", "setting": "Part A, 160 mg/m^2 (n=3)", "result": "0 n (%)"}, {"measurement": "Hypokalemia TEAE incidence, All grades", "setting": "Part A, 160 mg/m^2 (n=3)", "result": "0 n (%)"}, {"measurement": "Hypokalemia TEAE incidence, G≥3", "setting": "Part A, 160 mg/m^2 (n=3)", "result": "0 n (%)"}, {"measurement": "Nausea TEAE incidence, All grades", "setting": "Part A, 160 mg/m^2 (n=3)", "result": "1 (33.3) n (%)"}, {"measurement": "Nausea TEAE incidence, G≥3", "setting": "Part A, 160 mg/m^2 (n=3)", "result": "0 n (%)"}, {"measurement": "Peripheral edema TEAE incidence, All grades", "setting": "Part A, 160 mg/m^2 (n=3)", "result": "1 (33.3) n (%)"}, {"measurement": "Peripheral edema TEAE incidence, G≥3", "setting": "Part A, 160 mg/m^2 (n=3)", "result": "0 n (%)"}, {"measurement": "Vomiting TEAE incidence, All grades", "setting": "Part A, 160 mg/m^2 (n=3)", "result": "1 (33.3) n (%)"}, {"measurement": "Vomiting TEAE incidence, G≥3", "setting": "Part A, 160 mg/m^2 (n=3)", "result": "0 n (%)"}, {"measurement": "Abdominal pain TEAE incidence, All grades", "setting": "Part A, 320 mg/m^2 (n=7)", "result": "2 (28.6) n (%)"}, {"measurement": "Abdominal pain TEAE incidence, G≥3", "setting": "Part A, 320 mg/m^2 (n=7)", "result": "1 (14.3) n (%)"}, {"measurement": "Constipation TEAE incidence, All grades", "setting": "Part A, 320 mg/m^2 (n=7)", "result": "2 (28.6) n (%)"}, {"measurement": "Constipation TEAE incidence, G≥3", "setting": "Part A, 320 mg/m^2 (n=7)", "result": "0 n (%)"}, {"measurement": "Decreased appetite TEAE incidence, All grades", "setting": "Part A, 320 mg/m^2 (n=7)", "result": "2 (28.6) n (%)"}, {"measurement": "Decreased appetite TEAE incidence, G≥3", "setting": "Part A, 320 mg/m^2 (n=7)", "result": "1 (14.3) n (%)"}, {"measurement": "Fatigue TEAE incidence, All grades", "setting": "Part A, 320 mg/m^2 (n=7)", "result": "3 (42.9) n (%)"}, {"measurement": "Fatigue TEAE incidence, G≥3", "setting": "Part A, 320 mg/m^2 (n=7)", "result": "1 (14.3) n (%)"}]}]}
